Source: PMC8006777 (Journal of the American Chemical Society, 2020)

Target: MPP1 (Manganese Porphyrin-binding Protein 1)
Assay: UV-vis absorption titration
Set-up: species or system synthetic construct

SMILES: C1=CC2=[N+]3C1=Cc1ccc4[n]1[Mn-]31[n]3c(ccc3=C2c2ccccc2)=CC2=[N+]1C(=C4c1ccccc1)C=C2 (stereo not shown) [Mn(III)DPP]
- Kd: 0.122 ± 0.019 µM
